Laboratory results as given in patent US20240033246A1, “COMPOUNDS FOR TREATING EYE DISEASES AND DISORDERS” (The State of Israel, Ministry of Agriculture & Rural …, priority 2020, published 2024).

How the values were obtained:
[1] = Side effects after daily TTF eye drops (general health, retinal and corneal structure); assay type: in vivo; conditions: 12 weeks of daily treatment with TTF eye drops
Description: (§1) 3 weeks old RPE65/rd12 mice were treated twice daily (6 days/week) for 12 weeks with eye drops (10p1/eye drop) containing 12.5 mg/ml (34.7 mM) TTF (n=6) or vehicle alone (DMSO, n=6).

[2] = tested on: microglial cells; assay: Microglial activation and migration into the sub retina, Iba-1 staining of retina flat mounts; assay type: in vivo, RPE65/rd12 mice; conditions: eye drops 12.5 mg/ml TTF in DMSO twice daily, 6 days/week, 3 weeks; n=10; p=0.0063 vs placebo
Description: Eyes were lightly fixed in 4% PFA. The cornea, iris and lens were removed, the neuro-retina was peeled off and the RPE flat mount was incubated with Iba-1 antibodies (Wako chemicals, USA, 1:200 in PBS and 0.1% triton-X) for 16 hours at 4° C., followed by incubation with secondary Alexa Fluor® 488-AffiniPure Donkey Anti-Mouse IgG antibody (Jackson Immuno Research; USA, 1:400 in PBS with 0.2% DAPI) for 2 hours at room temperature. Samples were visualized using a fluorescent microscope (Olympus BX51) and recorded using the Olympus DP71 camera.
3 weeks old RPE65/rd12 mice were treated twice daily (6 days/week) for 3 weeks with eye drops containing 12.5 mg/ml (34.7 mM) TTF in DMSO (10pl/eye drop) or vehicle alone (DMSO). Each treatment consisted of one eye drop. Retina flat mounts of the treated and the control RPE65/rd12 mice were prepared as described above and stained for the microglial specific marker Iba-1.

[3] = tested on: retinal function; assay: Dark-adapted electroretinogram (ERG), retinal function; assay type: in vivo, RPE65/rd12 mice; conditions: eye drops 12.5 mg/ml TTF twice daily, 6 days/week, 12 weeks; n=6; vs placebo eye drops
Description: as §1
For dark adapted ERG, the mice were placed in total darkness for at least 12 h prior to examination. Animals were anesthetized with intraperitoneal injection containing 75 mg/kg ketamine and 10 mg/kg xylazine. Pupils were dilated with topical 1% tropicamide and 10% phenylephrine HCl. ERGs were recorded from both eyes simultaneously, using golden wire loop electrodes positioned on each cornea. Chloride silver electrodes were inserted subcutaneously near the temporal canthi as reference. An additional ground electrode was placed on the tail. Tests were performed under dark adapted (scotopic), and light adapted (photopic) conditions. Five light stimuli at increasing intensities were used (0.0023, 0.25, 2.4, 4.4, 23.5 cd-s/m2). For dark adapted ERG, responses were averaged with stimulus intervals of 1 to 30 s depending on the stimulus light intensity.

[4] = tested on: retinal cone photoreceptors; assay: Eye cup cultures stained for M-cone opsin (cone photoreceptor cell death in vitro); assay type: cell-based; conditions: 8 nM TTF in growth media, 18 hours, eye cups of 21-day old RPE65/rd12 mice, vs vehicle (0.0115% DMSO)
Description: Eyes were obtained from 21-day old RPE65/rd12 mice, and the posterior segment was separated from the cornea, the lens, the iris, and the ciliary body under a surgical microscope. The eye cups were placed onto a microporous membrane (30 mm in diameter; Millicell-CM; Millipore, Bedford, MA) with the ganglion cell layer (GCL) facing up and the sclera facing the filter in a six-well culture plate. Each well contained 1 ml of culture medium consisting of 50% minimum essential medium/HEPES (Sigma, St. Louis, MO), 25% HBSS (Invitrogen, USA), and 25% heat inactivated fetal bovine serum (Invitrogen, USA) supplemented with 200 μM L-glutamine and 5.75 mg/ml glucose and 8 nM natural TTF (nTTF) or synthetic TTF (sTTF) or same volume of vehicle solution (0.0115% DMSO, control). The eye cups were maintained in culture at 37° C., 5% C02 incubator for 18 hours.
The eye cups were fixed with 4% paraformaldehyde (PFA) and embedded in sucrose for cryopreservation. […]
Sections from these eye cups were stained with antibodies directed against M-cone opsin (Milipore, USA) by incubating the sections with antibodies diluted 1:100 in 1% BSA (Sigma) for 16 hrs at 4° C. followed by extensive washing in PBS and 1 hour incubation with 488-AffiniPure Donkey Anti-Mouse IgG antibody (Jackson Immuno Research) at room temperature. […] The number of positively stained cells/mm retina was recorded. […]

[5] = TTF eye drops crossing the corneal barrier, HPLC of anterior chamber fluids; assay type: in vivo; conditions: eye drops 12.5 mg/ml in DMSO, rabbit
Description: TTF eye drops (12.5 mg/ml=34.7 mM in DMSO) or vehicle (DMSO) were dropped every 10 seconds on rabbit eyes (10 eye drops of 50 μL per eye−0.5 mL total volume). The eye fluids were collected 45 minutes or 3 hours later. About 100 microliters of anterior chamber fluids were collected from each eye. The eye fluids from both eyes of the same rabbit were pooled and the amount of TTF that penetrated the cornea was determined by IPLC analysis. Twenty microliters of pooled eye fluids were filtered and injected into an Agilent UIHPLC Infinity II 1290 device equipped with a Kinetex 5 μm EVO C18 column (250*4.6 mm). Running conditions were as follows: a 10-minute gradient was delivered at a flow rate of 1 mL/min: 5 minutes in a binary mobile phase which consisted of 0.5% acetic acid (in distilled water), and 5 minutes in acetonitrile in DDW. The detection was performed at a wavelength of 350 nm since, in eye fluids taken from naive rabbits or rabbits given eye drops containing DMSO only, there was no background at 350 nm interfering with the measurement. Under these conditions, the retention time of TTF is 5.086 minutes.

[6] = tested on: IL-1β; assay: IL-1β concentration in retinal lysates (ELISA); assay type: in vivo, RPE65/rd12 mice; conditions: eye drops 12.5 mg/ml TTF in DMSO twice daily, 6 days/week, 3 weeks; vs vehicle
Description: 3 weeks old RPE65/rd12 mice were treated twice daily (6 days/week) for 3 weeks with eye drops containing 12.5 mg/ml (34.7 mM) TTF in DMSO (10p1/eye drop) or vehicle alone (DMSO).
Each pair of retinas from the same mouse was homogenized in the same tube in 120 μl lysis buffer containing 10 mM TRIS pH 7.5, 100 mM NaCl, 1 mM EDTA, and 0.01% TRITON X-100. Protein concentration in each sample was determined in duplicates using a commercial kit: Pierce™ BCA Protein Assay Kit (23227), Thermo Fisher Scientific, IL, USA. IL-1β levels were tested using a commercial sandwich ELISA kit: Mouse IL-1 beta/IL-1F2 DuoSet ELISA (DY401). R&D Systems, Inc., MN, USA.

[7] = tested on: retinal photoreceptors; assay: TUNEL staining of photoreceptor layer (photoreceptor apoptosis); assay type: in vivo, RPE65/rd12 mice; conditions: eye drops 12.5 mg/ml TTF in DMSO twice daily, 6 days/week, 3 weeks; n=7; p=0.0013 vs placebo
Description: 3 weeks old RPE65/rd12 mice were treated twice daily (6 days/week) for 3 weeks with eye drops containing 12.5 mg/ml (34.7 mM) TTF in DMSO (10 μl/eye drop) or vehicle alone (DMSO).
Mice were euthanized using C02, the eyes were obtained and fixed in 10% formalin. Frozen sections were stained with TUNEL-TMR kit following manufacturer's instructions. The number of TUNEL positive nuclei in the outer nuclear layer was counted as well as the length of retinal sections. Results are shown in FIG. 6 as the number of TUNEL positive nuclei/mm retina.

In the case of `COc1cc(-c2oc3cc(OC)c(OC)c(O)c3c(=O)c2O)ccc1O` [TTF, 3,5,4′-trihydroxy-6,7,3′-trimethoxyflavone], the “side effects (general health, retinal and corneal structure)” value [1] is reported as “no side effects were observed”, the “infiltrating subretinal microglia (mean±SD)” value [2] is reported as 42±14 microglia cells/retina and the “maximal dark-adapted ERG a-wave amplitude” value [3] is reported as “significantly higher”. For the same molecule, the “maximal dark-adapted ERG b-wave amplitude” value [3] was “significantly higher”, the “cone photoreceptor cell death in cultures of retinas” value [4] was “attenuates cone photoreceptor cell death” and the “crossing of the corneal barrier / penetration into the eye” value ([5]; 10 drops of 50 μL per eye, anterior chamber fluids) was “can cross the corneal barrier and penetrate the eye”. For the same molecule, the “time of maximal concentration of TTF in eye fluids after eye drops instillation” value ([5]; fluids collected at 45 minutes or 3 hours) was 45 min, the “IL-1β concentration in the retina” value [6] was “reduced” and the “TUNEL positive cells in the photoreceptor layer (mean±SE)” value [7] was 2±0.4 apoptotic cells/mm retina.
